Entries after “also recorded” stand apart in the source; their conditions may differ.
Experiments:
[1] = Dynamic rheology of hm-chitosan + vesicle mixtures; format: physicochemical; conditions: 28.6 mM cyclodextrin; hm-chitosan 0.238 wt %, vesicles 0.952 wt %
Description: (§1) The surfactant system employed was a mixture of the cationic surfactant, cetyl trimethylammonium tosylate (CTAT), and the anionic surfactant, sodium dodecyl benzene sulfonate (SDBS). The surfactants were purchased from Aldrich, and all solutions were made using distilled-deionized water. The phase diagram for CTAT/SDBS mixtures has been reported previously.^31 To form vesicles, CTAT and SDBS were mixed at a weight ratio of 70/30, respectively, at a combined 2 wt % concentration in water. The mixture was stirred overnight to ensure complete dissolution and equilibration of the vesicles prior to experiments.
(§2) Steady and dynamic rheological experiments were performed on a […] AR2000 stress-controlled rheometer. A cone-and-plate geometry of 40 mm diameter and 4° cone angle was used and samples were run at the physiological temperature of 37° C. Dynamic frequency spectra were obtained in the linear viscoelastic regime of the samples, as determined from dynamic strain sweep experiments.
However, at practical time scales, the hm-chitosan+vesicle+α-CD mixture behaves as a freely flowing liquid.

human heparinized blood [2] = assay: Visual observation / vial inversion of blood gelled by hm-chitosan; format: cell-based; conditions: 3 wt % α-CD added to blood gel formed with 0.25 wt % hm-chitosan
Protocol: (§3) 5 human subjects volunteered to have 20 mL of blood drawn by a registered nurse at the UMD School of Medicine. Subjects were healthy adults ranging age from 20 to 40 years of age (4 males, 1 female). 10 mL intervals of blood were drawn into Becton Dickinson Vacutainers® containing 143 USP units of sodium heparin. The protocol was approved by the Institutional Research Board (IRB) at UMD.
FIG. 3(a) is a photograph of human heparinized blood gelled by 0.25 wt % hm-chitosan. […] Note that this sample […] hold its own weight upon vial inversion.

[3] = Steady shear rheology of hm-chitosan + vesicle mixtures; format: physicochemical; conditions: for zero-shear viscosity: hm-chitosan (benz-C18, 1.5% modified) 0.238 wt %, 37° C.; for zero-shear viscosity / viscosity drop on addition of cyclodextrin: vesicles 0.952 wt %; for viscosity drop on addition of cyclodextrin: 28.6 mM vs 0 mM cyclodextrin, hm-chitosan 0.238 wt %; for reversal of gelation of vesicles by hm-chitosan: hm-chitosan and vesicle mixtures
Description: as §1, §2
The concentrations of hm-chitosan and vesicles were held constant at 0.238 wt % and 0.952 wt %, respectively, in both samples. One sample contained 0 mM α-CD (open diamonds) and the other contained 28.6 mM α-CD (open circles).

human heparinized blood [4] = assay: Dynamic rheology of hm-chitosan blood gel; format: cell-based; conditions: 3 wt % α-CD, 0.25 wt % hm-chitosan blood gel, 37° C.
Protocol: as §3, §2

[5] = general statement, no test described; cited from earlier work

| SMILES | dynamic rheology behaviour as ω→0 (long time scales) [1] | dynamic rheology response [1] | reversal of blood gelation (visual observation) (human heparinized blood [2]) | zero-shear viscosity ([3]; 28.6 mM cyclodextrin) [Pa·s] | viscosity drop on addition of cyclodextrin [3] | reversal of gelation of vesicles by hm-chitosan [3] | dynamic rheology response (G′, G″) of blood gel after supramolecule (human heparinized blood [4]) | solubility (solvent) [5] | zero-shear viscosity ([3]; 0 mM cyclodextrin, in Pa·s) | viscosity drop relative to the drop caused by α-CD ([3]; 28.6 mM cyclodextrin) |
| --- | --- | --- | --- | --- | --- | --- | --- | --- | --- | --- |
| OC[C@H]1O[C@@H]2O[C@H]3[C@H](O)[C@@H](O)[C@@H](O[C@H]4[C@H](O)[C@@H](O)[C@@H](O[C@H]5[C@H](O)[C@@H](O)[C@@H](O[C@H]6[C@H](O)[C@@H](O)[C@@H](O[C@H]7[C@H](O)[C@@H](O)[C@@H](O[C@H]1[C@H](O)[C@H]2O)O[C@@H]7CO)O[C@@H]6CO)O[C@@H]5CO)O[C@@H]4CO)O[C@@H]3CO [α-CD, α-cyclodextrin] | G′ and G″ are observed to overlap, indicating the onset of gelation over long time scales | viscous liquid | quickly reverse the gelling and convert the sample into a thin, flowing liquid; also recorded: instantly reverse the gelling and convert the sample into a thin, flowing liquid; also recorded: disruption of the gel into a freely flowing viscous liquid | ~0.01 | million-fold | reverse the gelation of vesicles by hm-chitosan | liquid-like with G″>G′ over the frequency range | soluble in water | – | – |
| OC[C@H]1O[C@@H]2O[C@H]3[C@H](O)[C@@H](O)[C@@H](O[C@H]4[C@H](O)[C@@H](O)[C@@H](O[C@H]5[C@H](O)[C@@H](O)[C@@H](O[C@H]6[C@H](O)[C@@H](O)[C@@H](O[C@H]7[C@H](O)[C@@H](O)[C@@H](O[C@H]8[C@H](O)[C@@H](O)[C@@H](O[C@H]1[C@H](O)[C@H]2O)O[C@@H]8CO)O[C@@H]7CO)O[C@@H]6CO)O[C@@H]5CO)O[C@@H]4CO)O[C@@H]3CO [β-CD, β-cyclodextrin] | – | – | – | – | – | – | – | more soluble in ethyl alcohol | – | – |
| OC[C@H]1O[C@@H]2O[C@H]3[C@H](O)[C@@H](O)[C@@H](O[C@H]4[C@H](O)[C@@H](O)[C@@H](O[C@H]5[C@H](O)[C@@H](O)[C@@H](O[C@H]6[C@H](O)[C@@H](O)[C@@H](O[C@H]7[C@H](O)[C@@H](O)[C@@H](O[C@H]8[C@H](O)[C@@H](O)[C@@H](O[C@H]9[C@H](O)[C@@H](O)[C@@H](O[C@H]1[C@H](O)[C@H]2O)O[C@@H]9CO)O[C@@H]8CO)O[C@@H]7CO)O[C@@H]6CO)O[C@@H]5CO)O[C@@H]4CO)O[C@@H]3CO [γ-CD, γ-cyclodextrin] | G′ and G″ are not observed to overlap, indicating that the sample does not become more gel-like as t→∞ | viscous liquid | – | – | thousand-fold | reverse the gelation of vesicles by hm-chitosan | – | soluble in water | ~10^1 | thousand-fold lower |
